Assay results reported in USRE39197E1, “Cell adhesion-inhibiting antiinflammatory and immune-suppressive compounds” (Abbott Laboratories, priority 1998, dated 2006).

Experiments:
[1] = molecular target: T1, interaction between the integrin LFA-1 and its adhesion partner ICAM-1 (Homo sapiens, UniProt P20701); assay: ICAM-1/LFA-1 Biochemical Interaction Assay; type: binding; settings: 4 μM compound; recombinant LFA-1, biotinylated ICAM-1/Ig
T1 construct: Recombinant LFA-1 (100 μL of 0.7 μg/ml mL, ICOS Corporation) in D-PBS; purchased ICOS Corporation
T1 sequence (P20701 26-1170): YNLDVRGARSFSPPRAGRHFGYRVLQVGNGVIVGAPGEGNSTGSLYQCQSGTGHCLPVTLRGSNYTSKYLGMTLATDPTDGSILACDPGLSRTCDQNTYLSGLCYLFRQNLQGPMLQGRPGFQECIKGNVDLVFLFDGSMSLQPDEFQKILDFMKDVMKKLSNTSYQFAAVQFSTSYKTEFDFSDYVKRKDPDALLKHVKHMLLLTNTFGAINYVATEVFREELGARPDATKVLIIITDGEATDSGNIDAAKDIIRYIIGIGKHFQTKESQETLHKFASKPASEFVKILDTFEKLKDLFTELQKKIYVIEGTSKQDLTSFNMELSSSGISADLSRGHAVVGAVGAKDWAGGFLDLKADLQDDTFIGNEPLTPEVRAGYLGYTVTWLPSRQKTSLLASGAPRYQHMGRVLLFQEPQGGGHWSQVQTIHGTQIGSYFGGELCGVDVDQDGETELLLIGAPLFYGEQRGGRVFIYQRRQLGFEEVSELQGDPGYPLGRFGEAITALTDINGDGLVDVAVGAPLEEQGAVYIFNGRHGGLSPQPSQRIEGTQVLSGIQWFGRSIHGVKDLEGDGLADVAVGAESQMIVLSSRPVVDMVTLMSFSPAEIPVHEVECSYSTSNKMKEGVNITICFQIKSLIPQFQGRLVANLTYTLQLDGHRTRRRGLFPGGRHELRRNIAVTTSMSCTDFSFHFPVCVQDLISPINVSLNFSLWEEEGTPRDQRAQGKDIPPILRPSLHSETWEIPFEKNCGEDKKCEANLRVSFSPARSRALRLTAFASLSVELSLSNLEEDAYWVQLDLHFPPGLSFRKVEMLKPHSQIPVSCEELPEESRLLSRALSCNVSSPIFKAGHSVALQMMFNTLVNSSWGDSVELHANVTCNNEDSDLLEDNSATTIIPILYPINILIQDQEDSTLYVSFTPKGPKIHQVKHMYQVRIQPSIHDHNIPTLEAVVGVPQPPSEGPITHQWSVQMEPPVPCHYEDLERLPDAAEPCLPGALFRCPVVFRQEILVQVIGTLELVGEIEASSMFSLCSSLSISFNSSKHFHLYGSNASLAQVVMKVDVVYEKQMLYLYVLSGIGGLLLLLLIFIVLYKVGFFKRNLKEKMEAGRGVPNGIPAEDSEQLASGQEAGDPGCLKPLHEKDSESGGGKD
T1 sequence (P05107 23-769 partner): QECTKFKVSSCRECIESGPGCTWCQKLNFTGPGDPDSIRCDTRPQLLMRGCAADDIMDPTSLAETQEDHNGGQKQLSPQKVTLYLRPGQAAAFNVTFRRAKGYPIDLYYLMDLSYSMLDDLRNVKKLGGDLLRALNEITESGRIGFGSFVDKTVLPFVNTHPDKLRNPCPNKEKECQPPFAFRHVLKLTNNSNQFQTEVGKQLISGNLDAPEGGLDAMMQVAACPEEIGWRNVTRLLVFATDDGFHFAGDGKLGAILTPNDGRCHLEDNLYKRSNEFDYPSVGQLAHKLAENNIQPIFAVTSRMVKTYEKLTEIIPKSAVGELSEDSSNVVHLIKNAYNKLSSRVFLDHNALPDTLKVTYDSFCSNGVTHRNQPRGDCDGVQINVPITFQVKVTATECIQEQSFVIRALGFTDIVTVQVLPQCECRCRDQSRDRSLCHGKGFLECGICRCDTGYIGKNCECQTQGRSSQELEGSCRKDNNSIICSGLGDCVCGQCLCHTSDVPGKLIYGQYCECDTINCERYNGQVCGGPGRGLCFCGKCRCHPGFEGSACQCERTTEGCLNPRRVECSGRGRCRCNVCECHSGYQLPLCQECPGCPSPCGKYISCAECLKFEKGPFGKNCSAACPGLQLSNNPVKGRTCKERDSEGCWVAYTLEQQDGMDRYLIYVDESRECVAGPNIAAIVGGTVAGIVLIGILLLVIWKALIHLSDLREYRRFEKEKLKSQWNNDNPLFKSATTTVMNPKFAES
Procedure: Compounds that antagonize the interaction between ICAM-1 and LFA-1 can be identified, and their activities quantitated, using both biochemical and cell-based adhesion assays. A primary biochemical assay measures the ability of the compound in question to block the interaction between the integrin LFA-1 and its adhesion partner ICAM-1, as described below:
ICAM-1/LFA-1 Biochemical Interaction Assay
In the biochemical assay, 100 μL of anti-LFA-1 antibody (ICOS Corporation) at a concentration of 5 μg/ml mL in Dulbecco's phosphate-buffered saaline (D-PBS) is used to coat wells of a 96-well microtiter plate overnight at 4° C. The wells are were then washed twice with wash buffer (D-PBS w/o Ca^++ or Mg^++, 0.05% Tween 20) and blocked by addition of 200 μL of D-PBS, 5% fish skin gelatin. Recombinant LFA-1 (100 μL of 0.7 μg/ml mL, ICOS Corporation) in D-PBS is was then added to each well. Incubation continues continued for 1 hour at room temperature and the wells are were washed twice with wash buffer. Serial dilutions of compounds being assayed as ICAM-1/LFA-1 antagonists, were prepared as 10 mM stock solutions in dimethyl sulfoxide (DMSO), are were diluted in D-PBS, 2 mM MgCl2, 1% fish skin gelatin and 50 μL of each dilution was added to duplicate wells. This is was followed by the addition of 50 μL of 0.8 μg/ml mL biotinylated recombinant ICAM-1/Ig (ICOS Corporation) to the wells and the plates are were incubated at room temperature for 1 hour. The wells are were then washed twice with wash buffer and 100 μL of Europium-labeled Streptavidin (Wallac Oy) diluted 1:100 in Delfia assay buffer (Wallac Oy), are was then added to the wells. Incubation proceeds proceeded for 1 hour at room temperature. The wells are were washed eight times with wash buffer and 100 μL of enhancement solution (Wallac Oy, cat. No. 1244-105) are was added to each well. Incubation proceeds proceeded for 5 minutes with constant mixing. Time-resolved fluorimetry measurements are were made using the a Victor 1420 Multilabel Counter (Wallac Oy) and the percent inhibition of each candidate compound is was calculated using the following equation: [formula] where “background” refers to wells that are were not coated with anti-LFA-1 antibody.

[2] = tested on: adherence of JY-8 cells (expressing LFA-1) to immobilized ICAM-1; assay: ICAM-1/JY-8 Cell Adhesion Assay; type: cell-based, human
Procedure: ICAM-1/JT-8 Cell Adhesion Assay
For measurment measurement of inhibotory inhibitory activity in the cell-based adhesion assay, 96-well microtiter plates are were coated with 70 μL of recombinat recombinant ICAM-1/Ig (ICOS Corporation) at a concentration of 5 μg/mL in D-PBS w/o without Ca^++ or Mg++ or Mg^++ overnight at 4° C. The wells are were then washed twice with D-PBS and blocked by addition of 200 μL of D-PBS, 5% fish skin gelatin by incubation for 1 hour at room temperature. […] The percent inhibition of a candidate compound at a given concentration is was calculated using the following equation: [formula] and these concentration/inhibition data are were used to generate does response curves, from which IC50 values are were derived.

[3] = Homo sapiens, JY-8, JY-8 cells on immobilized ICAM-1/Ig
[4] = JY-8 cells on immobilized ICAM-1/Ig

SMILES | inhibition at 4 µM [1] [%] | IC50 [2, 3] [nM] | % inhibition @ 4 μM [1] [%] | IC50 [2, 4] [nM]
O=C(/C=C/c1ccc(Sc2ccc(Cl)cc2Cl)c(Cl)c1)N1CCN(CCOCCO)CC1 [Example 14] |  |  | 82 | 790
O=C(/C=C/c1ccc(Sc2ccc(Cl)cc2Cl)c(Cl)c1)NCCCN1CCCC1=O [Example 6, (2,4-Dichlorophenyl)[2-chloro-4-(E-((3-(2-oxopyrrolidin-1-yl)propylamino)carbonyl)ethenyl)phenyl]sulfide] | 85 | 660 |  | 
O=C(/C=C/c1ccc(Sc2ccc(Cl)cc2Cl)c(Cl)c1)N1CCN(CCO)CC1 [Example 13] |  |  | 79 | 1100
O=C(/C=C/c1ccc(Sc2ccc(Cl)cc2Cl)c(Cl)c1)N1CCN(c2ccccn2)CC1 [Example 10, (2,4-Dichlorophenyl)[2-chloro-4-(E-((4-(2-pyridyl)piperazin-1-yl)carbonyl)ethenyl)phenyl]sulfide] |  | 1500 |  | 
O=C(/C=C/c1ccc(Sc2ccc(Cl)cc2Cl)c(Cl)c1)N1CCOCC1 [Example 7, (2,4-Dichlorophenyl)[2-chloro-4-(E-((1-morpholinyl)carbonyl)ethenyl)phenyl]sulfide] |  |  | 87 | 1200
O=C(/C=C/c1ccc(Sc2ccc(Cl)cc2Cl)c(Cl)c1)N(CCO)CCO [Example 5, (2,4-Dichlorophenyl)[2-chloro-4-(E-((bis-(2-hydroxyethyl)amino)carbonyl)ethenyl)phenyl]sulfide] | 73 | 2900 |  | 
CC(C)(C)OC(=O)CN1CCN(C(=O)/C=C/c2ccc(Sc3ccc(Cl)cc3Cl)c([N+](=O)[O-])c2)CC1 [Example 42, (2,4-Dichlorophenyl)[2-nitro-4-(E-((4-(tert-butoxycarbonylmethyl)piperazin-1-yl)carbonyl)ethenyl)phenyl]sulfide] | 56 | 520 |  | 
O=C(O)C1CCCN(C(=O)/C=C/c2ccc(Sc3ccc(Cl)cc3Cl)c(Cl)c2)C1 (stereo not shown) [Example 20, (2,4-Dichlorophenyl)[2-chloro-4-(E-((3-carboxypiperidin-1-yl)carbonyl)ethenyl)phenyl]sulfide] | 82 | 3300 |  | 
CN1CCN(C(=O)/C=C/c2ccc(Sc3ccc(Cl)cc3Cl)c(Cl)c2)CC1 [Example 8, (2,4-Dichlorophenyl)[2-chloro-4-(E-((4-methylpiperazin-1-yl)carbonyl)ethenyl)phenyl]sulfide] | 74 | 2900 |  | 
O=C(/C=C/c1ccccc1Sc1ccc(Cl)cc1Cl)NCCCn1ccnc1 [Example 2, (2,4-Dichlorophenyl)[2-(E-((3-(1-imidazolyl)propylamino)carbonyl)ethenyl)phenyl]sulfide] |  | 13000 |  | 
O=C(/C=C/c1ccc(Sc2ccc(Cl)cc2Cl)c(Cl)c1)NCCCCCCO [Example 4, (2,4-Dichlorophenyl)[2-chloro-4-(E-((6-hydroxyhexylamino)carbonyl)ethenyl)phenyl]sulfide] |  | 680 |  | 

Second part, the molecule after the results:

inhibition at 4 µM [1] [%] | IC50 [2, 3] [nM] | % inhibition @ 4 μM [1] [%] | IC50 [2, 4] [nM] | SMILES
86 | 250 |  |  | CS(=O)(=O)N1CCN(C(=O)/C=C/c2ccc(Sc3ccc(Cl)cc3Cl)c([N+](=O)[O-])c2)CC1 [Example 39, (2,4-Dichlorophenyl)[2-nitro-4-(E-((4-(methanesulfonyl)piperazin-1-yl)carbonyl)ethenyl)phenyl]sulfide]
92 |  |  |  | Cc1ccccc1Sc1ccc(/C=C/C(=O)NC2CC2)cc1C(F)(F)F [Example 31, (2-Methylphenyl)[2-trifluoromethyl-4-(E-((cyclopropylamino)carbonyl)ethenyl)phenyl]sulfide]
 |  | 83 | 510 | CCOC(=O)CN(C)Cc1ccccc1Sc1ccc(/C=C/C(=O)N2CCOCC2)cc1Cl [Example 56, (2-((N-Ethoxycarbonylmethyl-N-methyl)aminomethyl)phenyl)[2-chloro-4-(E-((1-morpholinyl)carbonyl)ethenyl)phenyl]sulfide]
80 | 520 |  |  | O=C(O)C1CCN(C(=O)/C=C/c2ccc(Sc3ccc(Cl)cc3Cl)c(Cl)c2)CC1 [Example 21, (2,4-Dichlorophenyl)[2-chloro-4-(E-((4-carboxypiperidin-1-yl)carbonyl)ethenyl)phenyl]sulfide]
90 | 280 |  |  | CCN(CC)C(=O)CN1CCN(C(=O)/C=C/c2ccc(Sc3ccc(Cl)cc3Cl)c([N+](=O)[O-])c2)CC1 [Example 40, (2,4-Dichlorophenyl)[2-nitro-4-(E-((4-(diethylaminocarbonylmethyl)piperazin-1-yl)carbonyl)ethenyl)phenyl]sulfide]
 |  | 82 | 100 | CC(C)NC(=O)CN1CCN(Cc2ccccc2Sc2ccc(/C=C/C(=O)N3CCOCC3)cc2Cl)CC1 [Example 55, (2-(4-(iso-Propylaminocarbonylmethyl)piperazin-1-ylmethyl)phenyl)[2-chloro-4-(E-((1-morpholinyl)carbonyl)ethenyl)phenyl]sulfide]
 | 300 |  |  | O=C(/C=C/c1ccc(Sc2ccc(Cl)cc2Cl)c([N+](=O)[O-])c1)NCCCN1CCCC1=O [Example 33, (2,4-Dichlorophenyl)[2-nitro-4-(E-((3-(2-oxopyrrolidin-1-yl)propylamino)carbonyl)ethenyl)phenyl]sulfide]
86 | 1200 |  |  | CC(=O)N1CCN(C(=O)/C=C/c2ccc(Sc3c(Cl)cccc3C=O)c(Cl)c2)CC1 [Example 65, (2-Chloro-6-formylphenyl)[2-chloro-4-(E-((4-acetylpiperazin-1-yl)carbonyl)ethenyl)phenyl]sulfide]
82 | 100 |  |  | O=C(O)C(=O)N1CCN(C(=O)/C=C/c2ccc(Sc3ccc(Cl)cc3Cl)c([N+](=O)[O-])c2)CC1 [Example 43, (2,4-Dichlorophenyl)[2-nitro-4-(E-((4-(carboxycarbonyl)piperazin-1-yl)carbonyl)ethenyl)phenyl]sulfide]
84 | 160 |  |  | Cc1ccccc1Sc1ccc(/C=C/C(=O)N2CCN(c3ccccc3)CC2)cc1C(F)(F)F [Example 29, (2-Methylphenyl)[2-trifluoromethyl-4-(E-((4-phenylpiperazin-1-yl)carbonyl)ethenyl)phenyl]sulfide]
 |  |  | 700 | O=C(/C=C/c1ccc(Sc2ccccc2CN2CCOCC2)c(Cl)c1)N1CCOCC1 [Example 53, (2-(1-Morpholinylmethyl)phenyl)[2-chloro-4-(E-((1-morpholinyl)carbonyl)ethenyl)phenyl]sulfide]
78 | 70 |  |  | O=C(O)CN1CCN(C(=O)/C=C/c2ccc(Sc3ccc(Cl)cc3Cl)c([N+](=O)[O-])c2)CC1 [Example 44, (2,4-Dichlorophenyl)[2-nitro-4-(E-((4-(carboxymethyl)piperazin-1-yl)carbonyl)ethenyl)phenyl]sulfide]
 |  | 88 | 540 | CN(C)N=Cc1ccccc1Sc1ccc(/C=C/C(=O)N2CCOCC2)cc1Cl [Example 61, (2-Formylphenyl)[2-chloro-4-(E-((1-morpholinyl)carbonyl)ethenyl)phenyl]sulfide, N,N-dimethyl hydrazone]
82 | 850 |  |  | O=C(/C=C/c1ccc(Sc2ccc(Cl)cc2Cl)c(Br)c1)NCCCN1CCCC1=O [Example 63, (2,4-Dichlorophenyl)[2-bromo-4-(E-((3-(2-oxopyrrolidin-1-yl)propylamino)carbonyl)ethenyl)phenyl]sulfide]
 |  | 81 |  | O=C(/C=C/c1ccc(Sc2ccc(Cl)cc2Cl)c(Br)c1)N1CCOCC1 [Example 64, (2,4-Dichlorophenyl)[2-bromo-4-(E-((1-morpholinyl)carbonyl)ethenyl)phenyl]sulfide]
 |  |  | 1600 | O=CN1CCN(Cc2ccccc2Sc2ccc(/C=C/C(=O)N3CCOCC3)cc2Cl)CC1 [Example 58, (2-(4-Formylpiperazin-1-ylmethyl)phenyl)[2-chloro-4-(E-((1-morpholinyl)carbonyl)ethenyl)phenyl]sulfide]
